{"source": "patent US20240002470A1", "about": "“Method for separation and/or detection and/or in vitro quantification of infectious compounds in biological material” (priority 2020, published 2024)", "key": {"[1]": {"system": "BVDV virus (Bovine viral Diarrhea Virus)", "assay": "Capture of BVDV virus on magnetic microbeads coated with pepβ2GPI", "format": "binding", "method": "The pepβ2GPI were grafted onto the microbeads according to the supplier's recommendations. In summary, the microbeads are suspended in phosphate buffer at a pH of 6.0. The beads are then activated, for 15 minutes, in the presence of 1-ethyl-3-(3-Dimethylaminopropyl) carbodiimide and N-hydroxysuccinimide. After washing with HCl, 2 mM, the beads are suspended in a phosphate buffer at a pH of 7.5, containing the pepβ2GPI. The concentration of pepβ2GPI in this coupling buffer is 20 mg/L; the microbeads are incubated in the buffer with gentle and constant shaking at a temperature of 25° C. for 3 hours. The microbeads are then centrifuged at 1,500 rpm and the supernatant is removed; the centrifugation pellet is suspended in the same buffer as that used for the coupling of pepβ2GPI, which forms the suspension of microbeads coated with pepβ2GPI which we want to test.\nOne hundred microliters of viral culture supernatant to be studied are placed in an Eppendorf tube with 900 microliters of Tris buffer at a pH of 7.5 and 10 microliters of microbeads. The tubes are shaken horizontally to mix the microbeads well, and each tube is incubated at 37° C. or at room temperature (RT=22° C.) for 30 minutes. In each tube, the microbeads are then separated from the liquid phase by means of a magnet, placed externally against the wall of the tube, and the viral RNA is extracted. The beads are brought into contact with a viral lysis buffer, included in an RNA extraction kit: QIAamp RNA viral kit, sold by QIAGEN and the viral RNA is isolated according to the seller's recommendations.\nThe viruses tested are the HSV virus (Herpes Simplex virus) and the BVDV virus (Bovine viral Diarrhea Virus).\nThe same protocol as that described in example 1 was carried out."}, "E. coli ATCC 11105": {"system": "E. coli ATCC 11105", "assay": "Capture on magnetic microbeads coated with pepβ2GPI: C3 E. coli ATCC 11105", "format": "binding", "method": "(§1) To test the interaction of microbeads coated with β2GPI and the peptides derived from them, with bacteria present in the blood, 1 ml of blood culture is taken from each sample and placed in a 15 ml tube. 20 μl of microbeads are added and each tube is incubated at 37° C. with horizontal shaking. The tubes are then placed in a magnetic field which retains the microbeads on the wall and the supernatant is removed. The microbeads are then washed twice with sterile PBS, of the same composition as previously indicated; the microbeads are then resuspended in 150 μl of BTS culture medium. Two methods for detecting bacteria captured by microbeads were used: culture on TS agar and PCR For the detection of the bacterial capture by culture, 50 μl of the suspension of microbeads thus obtained are taken and they are spread out in a Petri dish containing TS agar. Petri dishes are incubated in an oven at 37° C. for 24 hours. The bacteria that have grown on the agar were then counted.\n(§2) The tested bacteria are: C3 E. coli ATCC 11105, C5 S. aureus ATCC 6538, H61 E. coli B6054, C1: E. coli ATCC 8739, H46: C. albicans 1 and H: 60 SCN\n(§3) The same protocol and primers as those described in example 9 were carried out."}, "E. coli B6054": {"system": "E. coli B6054", "assay": "Capture on magnetic microbeads coated with pepβ2GPI: H61 E. coli B6054", "format": "binding", "method": "as §1, §2, §3"}, "S. aureus, SA 378804": {"system": "S. aureus, SA 378804", "assay": "Capture of S. aureus SA 378804 on magnetic microbeads, culture and counting", "format": "binding, Staphylococcus aureus", "settings": "S. aureus SA 378804 colonies from captured beads", "method": "One ml of the culture of bacteria to be studied is placed in a hemolysis tube. 100 μl of buffer are added, the trade name of which is TTGB, then 20 μl of microbeads. The tube is stirred horizontally, to mix the microbeads well, and incubated at 37° C. or at room temperature (TA=22° C.) for half an hour. At the end of the incubation, the microbeads are separated from the liquid phase by means of a magnet, placed externally against the wall of the tube. The microbeads are then washed twice with LB medium and then resuspended in 1 ml of BTS culture medium (Tripticase-Soy broth) having the following formulation: […]\nThis culture medium is brought to a boil and then autoclaved, to make it sterile, before use. 20 μl of the microbead suspension are taken and spread in a Petri dish containing TS agar (Trypticase-Soya agar) having the following formulation: […]\nThe Petri dishes are incubated at +37° C. for 24 hours. The bacteria that have grown on the agar are then counted.\nThe used bacterium is a strain of Staphylococcus aureus (S. aureus), SA 378804, isolated from the wound of the foot of a diabetic person, Sotto et al., Diabetes Care (2008) 31 (12), p. 2318-24. The same experiment as that described in the previous example was carried out."}}, "data": [{"molecule": "H-((SSLAFWK)2-K)2-K—NH2 [Peptide P11]", "values": [{"measurement": "Capture of BVDV virus", "setting": "[1]", "result": 266, "unit": "%"}, {"measurement": "Capture of C3 E. coli ATCC 11105", "setting": "E. coli ATCC 11105", "result": 43, "unit": "%"}, {"measurement": "Capture of H61 E. coli B6054", "setting": "E. coli B6054", "result": 90, "unit": "%"}]}, {"molecule": "β2GPI: plasma glycoprotein called β2-glycoprotein I, grafted on beads as the reference (protein, UniProt P02749 20-345, looked up, grafted on beads) Beta-2-glycoprotein 1: GRTCPKPDDLPFSTVVPLKTFYEPGEEITYSCKPGYVSRGGMRKFICPLTGLWPINTLKCTPRVCPFAGILENGAVRYTTFEYPNTISFSCNTGFYLNGADSAKCTEEGKWSPELPVCAPIICPPPSIPTFATLRVYKPSAGNNSLYRDTAVFECLPQHAMFGNDTITCTTHGNWTKLPECREVKCPFPSRPDNGFVNYPAKPTLYYKDKATFGCHDGYSLDGPEEIECTKLGNWSAMPSCKASCKVPVKKATVVYQGERVKIQEKFKNGMLHGDKVSFFCKNKEKKCSYTEDAQCIDGTIEVPKCFKEHSSLAFWKTDASDVKPC", "values": [{"measurement": "% compared to β2GPI", "setting": "S. aureus, SA 378804", "result": 100, "unit": "%"}]}]}
